Literature values, collected in patent publication US8932634B2, “Hydrocolloid carrier beads with inert filler material” (Yissum Research Development Company of the Hebrew …, priority 2006, dated 2015).
Where a name gives a salt, the structure may show the parent alone.

- solubility in water: high
SMILES: COc1ccc([C@@H]2Sc3ccccc3N(CCN(C)C)C(=O)[C@@H]2OC(C)=O)cc1 [Diltiazem hydrochloride]
